Measured values: US9657360B2, “Detection of viral infection” (priority 2011, dated 2017)
Residues, ends and D or L forms follow the SMILES beside them. *: point of attachment. Cbz = O=C(OCc1ccccc1)*

Columns and labels:
Hendra virus = type: cell-based

SMILES	Hendra virus replication (HeV titres) (Hendra virus)	HeLa cell viability (HeLa cells)
Cc1ccc(S(=O)(=O)/C=C/C#N)cc1 [Bay11-7082]	reduced (not significantly)	not adversely impacting HeLa cell viability
CC(C)C[C@@H](C=O)NC(=O)[C@H](CC(C)C)NC(=O)[C@H](CC(C)C)NC(=O)OCc1ccccc1 [MG-132] (Cbz-Leu-Leu-Leu-aldehyde)	significantly reduced	not adversely impacting HeLa cell viability
